Experimental findings from ChEMBL document CHEMBL1201862, “PubChem BioAssay data set” (2004) are described below.

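Test compounds were applied to cells in 96-well plates for 48 hours at 5 doses. GI50 marks 50% less growth.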 Active and inactive are the calls of the source. Cut-off read from the data, not from the text of the source: active = GI50 up to about 1.1 µM and inactive = higher.

Common to all, as to assay: inhibition of tumour cell growth, NCI panel, 48 h
The subject of experiment [1] is SF-268.
Experiment [2] relates to SK-OV-3.
Experiment [3] deals with TK-10.
Experiment [4] relates to SR.
The test system of experiment [5] is HOP-92.
Experiment [6] concerns OVCAR-3.
Experiment [7] relates to HL-60.
Experiment [8] concerns NCI/ADR-RES.
Experiment [9] has as its system NCI-H226.
The test system of experiment [10] is OVCAR-4.
Experiment [11] relates to A498.
The test system of experiment [12] is COLO 205.
Experiment [13] deals with SW-620.
For experiment [14], the system named is U-251.
The test system of experiment [15] is HCT-15.
Experiment [16] relates to SK-MEL-5.
The test system of experiment [17] is HT-29.
Experiment [18] concerns T47D.
Experiment [19] has as its system NCI-H460.

As to `NCCNS(=O)(=O)c1ccc(N)cc1`, the GI50 is > 100 µM (inactive) in [1]; > 100 µM (inactive) in experiment [2]; > 100 µM (inactive) in [3]; 41.4 µM (inactive) in experiment [4]; > 100 µM (inactive) in experiment [5]; > 100 µM (inactive) in [6]. Further, the GI50 was 18.7 µM (inactive) in experiment [7]; > 100 µM (inactive) in [8]; > 100 µM (inactive) in [9]; > 100 µM (inactive) in experiment [10]; > 100 µM (inactive) in experiment [11]; > 100 µM (inactive) in experiment [12]. The GI50 is > 100 µM (inactive) in experiment [13]; > 100 µM (inactive) in [14]; above 100 µM in experiment [15]; > 100 µM (inactive) in experiment [16]; > 100 µM (inactive) in [17]; > 100 µM (inactive) in experiment [18].

Take `S=C1N=C(Cl)/C(=C\c2ccco2)N1`: the GI50 in experiment [1] was > 100 µM (inactive); in experiment [2] it was > 100 µM (inactive); in [3], > 100 µM (inactive); in experiment [4], > 79.6 µM (inactive); in [5], > 100 µM (inactive); in [6], > 100 µM (inactive). The GI50 in [7] is > 70.5 µM (inactive); in [8] it was > 100 µM (inactive); in experiment [9], > 80.5 µM (inactive); in experiment [10] it was > 47.2 µM (inactive); in experiment [11], > 100 µM (inactive); in experiment [12], > 100 µM (inactive). Moreover, the GI50 was > 100 µM (inactive) in [13]; > 100 µM (inactive) in [19]; > 100 µM (inactive) in experiment [14]; above 100 µM in [15]; > 100 µM (inactive) in [16]; > 100 µM (inactive) in experiment [17]. Moreover, the GI50 in experiment [18] is > 100 µM (inactive).

`Cc1c(CNc2ccc(Cl)c(Cl)c2Cl)cnc2nc(N)nc(N)c12`: the GI50 in experiment [1] is 0.404 µM (active); in experiment [2] it was > 35.6 µM (inactive); in [3], 14.1 µM (inactive); in [4], 0.357 µM (active); in experiment [5], 5.85 µM (inactive); in experiment [6], 13.6 µM (inactive). The GI50 in [7] is 0.607 µM (active); in [8], > 100 µM (inactive); in experiment [9] it was 19.5 µM (inactive); in [10], 14.5 µM (inactive); in [11] it was > 100 µM (inactive); in experiment [12], 5.35 µM (inactive). The GI50 was 0.179 µM (active) in [13]; 0.0615 µM (active) in experiment [19]; 0.172 µM (active) in [14]; 0.184 µM in experiment [15]; 0.263 µM (active) in experiment [16]; 0.162 µM (active) in experiment [17]. The GI50 in [18] is 4.24 µM (inactive).

As for `CC(=O)OCC1OC(n2c(-c3ccc(C)cc3)cc(-c3ccccc3)c(C#N)c2=S)C(OC(C)=O)C(OC(C)=O)C1OC(C)=O` (centres undefined), the GI50 in [1], in experiment [2], in experiment [3], in experiment [4], in [5] and in experiment [6] was > 100 µM (inactive) throughout. Moreover, the GI50 in [7] was > 100 µM (inactive); in [8] it was > 100 µM (inactive); in experiment [9] it was > 100 µM (inactive); in experiment [10], 81.1 µM (inactive); in experiment [11], 31 µM (inactive); in experiment [12] it was > 100 µM (inactive). For the same molecule, the GI50 is > 100 µM (inactive) in experiment [13]; > 100 µM (inactive) in experiment [19]; > 100 µM (inactive) in experiment [14]; above 100 µM in experiment [15]; 37.8 µM (inactive) in [16]; > 100 µM (inactive) in experiment [17]. In addition, the GI50 in experiment [18] was > 100 µM (inactive).

On to `Fc1ccc(/C=C2\COCC3=C2NC(=S)NC3c2ccc(F)cc2)cc1` (centres undefined), for which the GI50 in experiment [1] is 17.7 µM (inactive); in [2], 31 µM (inactive); in [3], 22.1 µM (inactive); in [4], 19 µM (inactive); in experiment [5] it was 18.7 µM (inactive); in experiment [6], 17.8 µM (inactive). Further, the GI50 in experiment [7] is 10.5 µM (inactive); in experiment [8] it was 19.1 µM (inactive); in [9] it was 21.1 µM (inactive); in [10], 18.1 µM (inactive); in [11], 16 µM (inactive); in experiment [12], 20.2 µM (inactive). The GI50 in [13] is 19.7 µM (inactive); in experiment [19], 19.8 µM (inactive); in [14], 20.5 µM (inactive); in experiment [15], 15.7 µM; in experiment [16], 19.4 µM (inactive); in experiment [18], 26.1 µM (inactive).

As for `O=[N+]([O-])/C(C(Cl)=C(Cl)Cl)=C(/Sc1ccccc1)N1CCOCC1`, the GI50 in [1] was 4.46 µM (inactive); in [2] it was 34.8 µM (inactive); in experiment [3], 6.68 µM (inactive); in [4], 2.12 µM (inactive); in experiment [5] it was 2.34 µM (inactive); in experiment [6], 2.69 µM (inactive). Further, the GI50 in experiment [7] is 1.99 µM (inactive); in experiment [8], 6.28 µM (inactive); in experiment [9], 11.4 µM (inactive); in experiment [10], 11.6 µM (inactive); in experiment [11], 14.6 µM (inactive); in experiment [12], 3.88 µM (inactive). Also, the GI50 in experiment [13] was 2.26 µM (inactive); in experiment [19] it was 5.05 µM (inactive); in [14] it was 10.5 µM (inactive); in experiment [15], 3.45 µM; in experiment [16] it was 3 µM (inactive); in experiment [17], 6.15 µM (inactive). For the same molecule, the GI50 in experiment [18] is 3.02 µM (inactive).

For the molecule `COc1cc2c(cc1Cc1c(F)cccc1Cl)nc(-c1c(F)cccc1Cl)n2Cc1c(F)cccc1Cl`, the GI50 in experiment [1] is 58.9 µM (inactive); in [2], 20.8 µM (inactive); in experiment [3], > 100 µM (inactive); in [4], 26.7 µM (inactive); in [5], 2.64 µM (inactive); in [6], 11.6 µM (inactive). Besides, the GI50 in [7] was 78.5 µM (inactive); in experiment [8] it was 38.7 µM (inactive); in experiment [9], 34 µM (inactive); in experiment [10], 18.6 µM (inactive); in [11] it was 27.3 µM (inactive); in [12], 44.8 µM (inactive). For the same molecule, the GI50 was 22.5 µM (inactive) in [19]; 35.2 µM (inactive) in experiment [14]; 62.7 µM in experiment [15]; 13.5 µM (inactive) in experiment [16]; 16.5 µM (inactive) in [17]; 10.2 µM (inactive) in experiment [18].

For the molecule `Cc1ccc(S(=O)(=O)OC2CN3CCC2CC3)cc1` (centres undefined), the GI50 in experiment [1], in experiment [2], in experiment [3], in [4], in experiment [5] and in experiment [6] was > 100 µM (inactive) each time. Also, the GI50 in experiment [7] is 22.6 µM (inactive); in experiment [8], > 100 µM (inactive); in [9], > 100 µM (inactive); in [10] it was > 100 µM (inactive); in experiment [11] it was > 100 µM (inactive); in experiment [12], > 100 µM (inactive). The GI50 in [13] is > 100 µM (inactive); in experiment [19], > 100 µM (inactive); in [14], > 100 µM (inactive); in experiment [15] it was above 100 µM; in experiment [16], > 100 µM (inactive); in experiment [17], > 100 µM (inactive). For the same molecule, in experiment [18], the GI50 is > 100 µM (inactive).

In the case of `Cc1ccc2nc(NC(=O)C(=O)C3C(=O)NC(=S)NC3=O)sc2c1`, the GI50 is > 100 µM (inactive) in experiment [1]; > 100 µM (inactive) in experiment [2]; > 100 µM (inactive) in experiment [3]; > 10 µM (inactive) in experiment [4]; > 100 µM (inactive) in experiment [5]; > 100 µM (inactive) in experiment [6]. The GI50 in [7], in experiment [8], in [9], in experiment [10], in [11] and in experiment [13] was > 100 µM (inactive) in each case. Moreover, the GI50 was > 100 µM (inactive) in experiment [19]; > 100 µM (inactive) in [14]; above 100 µM in experiment [15]; > 100 µM (inactive) in [16]; > 100 µM (inactive) in experiment [17]; > 100 µM (inactive) in experiment [18].

For `COC(=O)CN1Cc2cc(C)cc(c2O)CN(CC(=O)OC)Cc2cc(C)cc(c2O)CN(CC(=O)OC)Cc2cc(C)cc(c2O)CN(CC(=O)OC)Cc2cc(C)cc(c2O)C1`, the GI50 was 9.89 µM (inactive) in experiment [1]; 11.9 µM (inactive) in [2]; 15.4 µM (inactive) in experiment [3]; 6.04 µM (inactive) in [4]; > 50 µM (inactive) in [5]; 7.05 µM (inactive) in experiment [6]. The GI50 in experiment [7] was 3.03 µM (inactive); in experiment [8], 19.5 µM (inactive); in experiment [9], 8.04 µM (inactive); in [10], 12.2 µM (inactive); in experiment [11], 18.1 µM (inactive); in [12], 13.7 µM (inactive). Besides, the GI50 in experiment [13] is 14.3 µM (inactive); in experiment [19], 6.85 µM (inactive); in [14], 14 µM (inactive); in experiment [15], 14.6 µM; in experiment [16], 19.9 µM (inactive); in experiment [17], 8.79 µM (inactive). Moreover, the GI50 in [18] is 13.2 µM (inactive).

`CN(C)c1ccc(C(C#N)N2CCCN(C(C#N)c3ccc(N(C)C)cc3)C2c2ccc(N(C)C)cc2)cc1` (centres undefined): the GI50 in [1], in [2], in [3], in experiment [4], in experiment [5] and in experiment [6] was > 100 µM (inactive) in each case. Moreover, the GI50 in experiment [7], in experiment [8], in experiment [9], in experiment [10], in experiment [11] and in experiment [12] was > 100 µM (inactive) each time. Moreover, the GI50 in experiment [13] is > 100 µM (inactive); in experiment [14], > 100 µM (inactive); in experiment [15], above 100 µM; in experiment [16] it was > 100 µM (inactive); in experiment [17] it was > 100 µM (inactive); in experiment [18], > 100 µM (inactive).
